{"source": "PubChem BioAssay AID1259409", "about": "(Chemical Carcinogenesis Research Information System (CCRIS), 2018)", "origin": "cited, not measured here", "test_system": "rodent chemically induced tumor inhibition, incidence and multiplicity", "test": "CCRIS tumor inhibitor studies", "data": [{"compound": "CC(C)=CCC/C(C)=C/CC/C(C)=C/C=C/C(C)=C/C(=O)O", "values": [{"measurement": "outcome", "setting": "Carcinogen: 3-METHYL-4-DIMETHYLAMINOAZOBENZENE [3732-90-9], Dose [Inhibitor]: 0, 10, 40, 80 MG/KG BW DAILY FOR 16 WK, Dose [Inhibitor]: 0, 10, 40, 80 MG/KG BW DAILY FOR 16 WK, Route [Inhibitor]: ORAL (GAVAGE), Species: RAT, Strain/Sex: F344/MALE (40,29)/(40,30)/(40,30)/(40,29), Target Tissue: Type of Lesion: LIVER: HEPATOCELLULAR CARCINOMA, Dose [Carcinogen]: 0.06% FOR 16 WK", "value": "(17/29) 57%; (16/30) 53%, 9%; (4/30) 13%, 77%, p<0.05; (2/29) 7%, 89%, p<0.05"}, {"measurement": "outcome", "setting": "Carcinogen: 3-METHYL-4-DIMETHYLAMINOAZOBENZENE [3732-90-9], Dose [Inhibitor]: 0, 10, 40, 80 MG/KG BW DAILY FOR 16 WK, Dose [Inhibitor]: 0, 10, 40, 80 MG/KG BW DAILY FOR 16 WK, Route [Inhibitor]: ORAL (GAVAGE), Species: RAT, Strain/Sex: F344/MALE (40,29)/(40,30)/(40/30)/(40,29), Target Tissue: Type of Lesion: LIVER: HEPATOCELLULAR ADENOMA, Dose [Carcinogen]: 0.06% FOR 16 WK", "value": "(29/29) 100%; (30/30) 100%, 0%; (26/30) 86.7%, 13.3%; (24/29) 82.4%, 17.6%"}]}, {"compound": "CC1=C(/C=C/C(C)=C/C=C/C(C)=C/C(=O)Nc2ccc(C(=O)O)cc2)C(C)(C)CCC1", "values": [{"measurement": "tumour outcome (control, treated, inhibition, significance)", "setting": "Carcinogen: L-AZASERINE, 115-02-6, Dose [Inhibitor]: 1 MMOL/KG DIET DAILY FOR 91 D FOLLOWED BY 0.5 MMOL/KG DIET DAILY FOR 246 D DURING A 358 D PERIOD STARTING 1 WK AFTER COM, Route [Inhibitor]: ORAL, Species: RAT, Strain/Sex: WISTAR-LEWIS/FEMALE, Target Tissue: Type of Lesion: PANCREAS: ADENOMA, Dose [Carcinogen]: 10 MG/KG BW 1/WK FOR 15 WK, Promoter: NONE USED", "value": "35%, 38%, -9%, not significant"}, {"measurement": "tumour outcome (control, treated, inhibition, significance)", "setting": "Carcinogen: L-AZASERINE, 115-02-6, Dose [Inhibitor]: 1 MMOL/KG DIET DAILY FOR 91 D FOLLOWED BY 0.5 MMOL/KG DIET DAILY FOR 246 D DURING A 358 D PERIOD STARTING 1 WK AFTER COM, Route [Inhibitor]: ORAL, Species: RAT, Strain/Sex: WISTAR-LEWIS/FEMALE, Target Tissue: Type of Lesion: PANCREAS: CARCINOMA IN SITU, Dose [Carcinogen]: 10 MG/KG BW 1/WK FOR 15 WK, Promoter: NONE USED", "value": "48%, 8%, 83%, not significant"}, {"measurement": "tumour outcome (control, treated, inhibition, significance)", "setting": "Carcinogen: L-AZASERINE, 115-02-6, Dose [Inhibitor]: 1 MMOL/KG DIET DAILY FOR 91 D FOLLOWED BY 0.5 MMOL/KG DIET DAILY FOR 246 D DURING A 358 D PERIOD STARTING 1 WK AFTER COM, Route [Inhibitor]: ORAL, Species: RAT, Strain/Sex: WISTAR-LEWIS/FEMALE, Target Tissue: Type of Lesion: PANCREAS: CARCINOMA, Dose [Carcinogen]: 10 MG/KG BW 1/WK FOR 15 WK, Promoter: NONE USED", "value": "4%, 0%, 100%, not significant"}, {"measurement": "tumour outcome (control, treated, inhibition, significance)", "setting": "Carcinogen: L-AZASERINE, 115-02-6, Dose [Inhibitor]: 1 MMOL/KG DIET DAILY FOR 91 D FOLLOWED BY 0.5 MMOL/KG DIET DAILY FOR 246 D DURING A 358 D PERIOD STARTING 1 WK AFTER COM, Route [Inhibitor]: ORAL, Species: RAT, Strain/Sex: WISTAR-LEWIS/FEMALE, Target Tissue: Type of Lesion: PANCREAS: NEOPLASM, Dose [Carcinogen]: 10 MG/KG BW 1/WK FOR 15 WK STARTING 15 WK, Promoter: NONE USED", "value": "87%, 46%, 47%, p<0.05"}, {"measurement": "tumour outcome (control, treated, inhibition, significance)", "setting": "Carcinogen: L-AZASERINE, 115-02-6, Dose [Inhibitor]: 1 MMOL/KG DIET DAILY FOR 91 D FOLLOWED BY 0.5 MMOL/KG DIET DAILY FOR 246 D DURING A 358 D PERIOD STARTING 1 WK AFTER COM, Route [Inhibitor]: ORAL, Species: RAT, Strain/Sex: WISTAR-LEWIS/MALE, Target Tissue: Type of Lesion: PANCREAS: ADENOMA, Dose [Carcinogen]: 10 MG/KG BW 1/WK FOR 15 WK, Promoter: NONE USED", "value": "29%, 16%, 45%, not significant"}, {"measurement": "tumour outcome (control, treated, inhibition, significance)", "setting": "Carcinogen: L-AZASERINE, 115-02-6, Dose [Inhibitor]: 1 MMOL/KG DIET DAILY FOR 91 D FOLLOWED BY 0.5 MMOL/KG DIET DAILY FOR 246 D DURING A 358 D PERIOD STARTING 1 WK AFTER COM, Route [Inhibitor]: ORAL, Species: RAT, Strain/Sex: WISTAR-LEWIS/MALE, Target Tissue: Type of Lesion: PANCREAS: CARCINOMA IN SITU, Dose [Carcinogen]: 10 MG/KG BW 1/WK FOR 15 WK, Promoter: NONE USED", "value": "58%, 64%, -10%, not significant"}, {"measurement": "tumour outcome (control, treated, inhibition, significance)", "setting": "Carcinogen: L-AZASERINE, 115-02-6, Dose [Inhibitor]: 1 MMOL/KG DIET DAILY FOR 91 D FOLLOWED BY 0.5 MMOL/KG DIET DAILY FOR 246 D DURING A 358 D PERIOD STARTING 1 WK AFTER COM, Route [Inhibitor]: ORAL, Species: RAT, Strain/Sex: WISTAR-LEWIS/MALE, Target Tissue: Type of Lesion: PANCREAS: CARCINOMA, Dose [Carcinogen]: 10 MG/KG BW 1/WK FOR 15 WK, Promoter: NONE USED", "value": "8%, 16%, -100%, not significant"}, {"measurement": "tumour outcome (control, treated, inhibition, significance)", "setting": "Carcinogen: L-AZASERINE, 115-02-6, Dose [Inhibitor]: 1 MMOL/KG DIET DAILY FOR 91 D FOLLOWED BY 0.5 MMOL/KG DIET DAILY FOR 246 D DURING A 358 D PERIOD STARTING 1 WK AFTER COM, Route [Inhibitor]: ORAL, Species: RAT, Strain/Sex: WISTAR-LEWIS/MALE, Target Tissue: Type of Lesion: PANCREAS: NEOPLASM, Dose [Carcinogen]: 10 MG/KG BW 1/WK FOR 15 WK, Promoter: NONE USED", "value": "95%, 96%, -1%, not significant"}]}, {"compound": "O=C(/C=C/c1ccc(O)c(C2C(c3ccc(O)cc3)Oc3cc(O)ccc3C2c2cc(C3OC(c4ccc(O)cc4)C(C(=O)c4ccc(O)cc4O)C3Cc3ccc(O)cc3)c(O)cc2O)c1)c1ccc(O)cc1O", "note": "(centres undefined)", "values": [{"measurement": "tumour outcome (control, treated, inhibition, significance)", "setting": "Carcinogen: 7,12-DIMETHYLBENZ[A]ANTHRACENE, 57-97-6, Dose [Inhibitor]: 0, 16 NMOL 2/WK 1 HR PRIOR TO EACH PROMOTER DOSE FOR 20 WK (STUDY DURATION: 20 WK), Route [Inhibitor]: DERMAL, Species: MOUSE, Strain/Sex: ICR/FEMALE, Target Tissue: Type of Lesion: SKIN: TUMOR, Dose [Carcinogen]: 0.19 UMOL ONCE, Promoter: 12-0-TETRADECANOYLPHORBOL-13-ACETATE, 16561-29-8", "value": "70%, 45%, 36%, not calculated"}]}, {"compound": "CC1(C)[C@@H](O)CC[C@]2(C)[C@H]3C(=O)C=C4[C@@H]5C[C@@](C)(C(=O)O)CC[C@]5(C)CC[C@@]4(C)[C@]3(C)CC[C@@H]12", "values": [{"measurement": "outcome", "setting": "Carcinogen: 7,12-DIMETHYLBENZ[A]ANTHRACENE, 57-97-6, Dose [Inhibitor]: 0, 10 UMOL IN 0.2 ML DMSO/ACETONE (1:2) 1/D BEGINNING 7 D PRIOR TO CARCINOGEN DOSE (STUDY DURATION: 16 WK), Route [Inhibitor]: DERMAL, Species: MOUSE, Strain/Sex: SENCAR/FEMALE, Target Tissue: Type of Lesion: SKIN: TUMOR, Dose [Carcinogen]: 40 NMOL IN 0.2 ML ACETONE ONCE", "value": "100%, 45%, 55%, not calculated at 9 wk; 100%, 85%, 15%, not calculated at 16 wk"}, {"measurement": "outcome", "setting": "Carcinogen: 7,12-DIMETHYLBENZ[A]ANTHRACENE, 57-97-6, Dose [Inhibitor]: 0, 30 UMOL IN DMSO/ACETONE (1:2) 30 MIN PRIOR TO EACH PROMOTER DOSE (STUDY DURATION: 16 WK), Route [Inhibitor]: DERMAL, Species: MOUSE, Strain/Sex: SENCAR/FEMALE, Target Tissue: Type of Lesion: SKIN: TUMOR, Dose [Carcinogen]: 40 NMOL IN 0.2 ML ACETONE ONCE", "value": "100%, 40%, 60%, not calculated at 9 wk; 100%, 80%, 20%, not calculated at 16 wk"}, {"measurement": "tumour outcome (control, treated, inhibition, significance)", "setting": "Carcinogen: 7,12-DIMETHYLBENZ[A]ANTHRACENE, 57-97-6, Dose [Inhibitor]: 10 UMOL APPLIED 40 MINUTES PRIOR TO PROMOTER DOSE (STUDY DURATION: 20 WK), Route [Inhibitor]: DERMAL, Species: MOUSE, Strain/Sex: ICR/FEMALE, Target Tissue: Type of Lesion: SKIN: PAPILLOMA, Dose [Carcinogen]: 100 UG ONCE", "value": "100%, 40%, 60%, p<0.05"}, {"measurement": "tumour outcome (control, treated, inhibition, significance)", "setting": "Carcinogen: AZOXYMETHANE, 25843-45-2, Dose [Inhibitor]: 0, 1200 PPM IN DIET BEGINNING 1 WK PRIOR TO CARCINOGEN TREATMENT FOR DURATION OF STUDY (STUDY DURATION: 54 WK), Route [Inhibitor]: ORAL, Species: RAT, Strain/Sex: F344/MALE, Target Tissue: Type of Lesion: COLON: ADENOCARCINOMA, Dose [Carcinogen]: 15 MG/KG/BW 1/WK FOR 2 WK, Promoter: NONE USED", "value": "58%, 78%, -35%, not calculated"}, {"measurement": "tumour outcome (control, treated, inhibition, significance)", "setting": "Carcinogen: AZOXYMETHANE, 25843-45-2, Dose [Inhibitor]: 0, 1200 PPM IN DIET BEGINNING 1 WK PRIOR TO CARCINOGEN TREATMENT FOR DURATION OF STUDY (STUDY DURATION: 54 WK), Route [Inhibitor]: ORAL, Species: RAT, Strain/Sex: F344/MALE, Target Tissue: Type of Lesion: COLON: ADENOMA, Dose [Carcinogen]: 15 MG/KG/BW 1/WK FOR 2 WK, Promoter: NONE USED", "value": "6%, 6%, 0%, not calculated"}, {"measurement": "tumour outcome (control, treated, inhibition, significance)", "setting": "Carcinogen: AZOXYMETHANE, 25843-45-2, Dose [Inhibitor]: 0, 2400 PPM IN DIET BEGINNING 1 WK PRIOR TO CARCINOGEN TREATMENT FOR DURATION OF STUDY (STUDY DURATION: 54 WK), Route [Inhibitor]: ORAL, Species: RAT, Strain/Sex: F344/MALE, Target Tissue: Type of Lesion: COLON: ADENOMA, Dose [Carcinogen]: 15 MG/KG/BW 1/WK FOR 2 WK, Promoter: NONE USED", "value": "6%, 6%, 0%, not significant"}, {"measurement": "tumour outcome (control, treated, inhibition, significance)", "setting": "Carcinogen: AZOXYMETHANE, 25843-45-2, Dose [Inhibitor]: 0, 2400 PPM IN DIET BEGINNING 1 WK PRIOR TO CARCINOGEN TREATMENT OF DURATION OF STUDY (STUDY DURATION: 54 WK), Route [Inhibitor]: ORAL, Species: RAT, Strain/Sex: F344/MALE, Target Tissue: Type of Lesion: COLON: ADENOCARCINOMA, Dose [Carcinogen]: 15 MG/KG/BW 1/WK FOR 2 WK, Promoter: NONE USED", "value": "58%, 53%, 9%, not calculated"}]}, {"compound": "c1ccc2c(c1)Oc1ccccc1O2", "values": [{"measurement": "tumour outcome (control, treated, inhibition, significance)", "setting": "Carcinogen: 7,12-DIMETHYLBENZ[A]ANTHRACENE, 57-97-6, Dose [Inhibitor]: 0, 17 NMOL 2/WK APPLIED 1 HR PRIOR TO EACH PROMOTER DOSE FOR 20 WK (STUDY DURATION: 21 WK), Route [Inhibitor]: DERMAL, Species: MOUSE, Target Tissue: Type of Lesion: SKIN: TUMOR, Dose [Carcinogen]: 390 NMOL ONCE, Promoter: 12-O-TETRADECANOYLPHORBOL-13-ACETATE, 16561-29-8", "value": "100%, 73%, 27%, not calculated"}]}]}
